Assay results as given in US20140212495A1, “NANOPARTICULATE COMPOSITIONS OF TUBULIN INHIBITOR COMPOUNDS” (Ziopharm Oncology, Inc., priority 2004, published 2014).
Like-named read-outs stand apart in the source and are kept apart here.

What was measured:
[1] = 4-week subchronic toxicity study in dogs, D-24851 plasma pharmacokinetics; assay type: in vivo; settings: for AUC / Cmax / Tmax / half-life / AUC(0-t): dog, plasma, iv; for AUC(0-t): read-out: AUC0-tlast,md
Description: Blood samples from all animals were taken at the following times: 1 h, 2 h, 4 h, 8 h, 16 h, 24 h, 36 h and 48 hours after application. The concentration levels of D-24851 were measured using HPLC.

[2] = tested on: tubulin; settings: cited from earlier work
[3] = tested on: cell cycle progression at metaphase; settings: cited from earlier work
[4] = tested on: a variety of malignancies (e.g., prostate, brain, breast, pancreas, and colon); settings: cited from earlier work
[5] = cited from earlier work

For `O=C(Nc1ccncc1)C(=O)c1cn(Cc2ccc(Cl)cc2)c2ccccc12` [Composition D-24851, N-(Pyridin-4-yl)-[1-(4-chlorobenzyl)-indol-3-yl]glyoxylic acid amide], the “dose dependence of plasma concentrations” value ([1]; Composition 4 i.v. 2.61, 5.62 and 12.1 mg/kg) was “depend from the dose”, the “plasma profiles day 1 versus day 27” value ([1]; Composition 4 i.v., 4 weeks) was “of similar magnitude at day 1 and day 27 dosings” and the CL/f ([1]; Day 1, Composition 4 i.v. 5.62 mg/kg, Males, Meanar n=3) was 38.1 mL/min/kg. The CL/f ([1]; Day 1, Composition 4 i.v. 12.1 mg/kg, Females, Meanar n=3) was 31.1 mL/min/kg, the CL/f ([1]; Day 1, Composition 4 i.v. 12.1 mg/kg, Males, Meanar n=3) was 29.5 mL/min/kg and the CL/f ([1]; Day 27, Composition 4 i.v. 5.62 mg/kg, Males, Meanar n=3) was 38.1 mL/min/kg. The CL/f ([1]; Day 27, Composition 4 i.v. 12.1 mg/kg, Females, Meanar n=3) was 31.1 mL/min/kg, the CL/f ([1]; Day 27, Composition 4 i.v. 12.1 mg/kg, Males, Meanar n=3) was 29.5 mL/min/kg and the AUC ([1]; female, 2.61 mg/kg, Day 1, Composition 4 i.v. 2.61 mg/kg, Females, Meanar n=3, read-out: AUCτ, sd) was 3400 ng·h/mL. The Cmax ([1]; female, 2.61 mg/kg, Day 1, Composition 4 i.v. 2.61 mg/kg, Females, Meanar n=3, read-out: Cmax, sd) was 210 ng/mL, the Tmax ([1]; female, 2.61 mg/kg, Day 1, Composition 4 i.v. 2.61 mg/kg, Females, Meanar n=3, read-out: tmax, sd) was 1.67 h and the half-life ([1]; female, 2.61 mg/kg, Day 1, Composition 4 i.v. 2.61 mg/kg, Females, only for orientating, unsufficient curve fitting) was 41 h. For the same compound, the AUC ([1]; female, 2.61 mg/kg, Day 27, Composition 4 i.v. 2.61 mg/kg, Females, Meanar n=3, read-out: AUCτ, md) was 1410 ng·h/mL, the Cmax ([1]; female, 2.61 mg/kg, Day 27, Composition 4 i.v. 2.61 mg/kg, Females, Meanar n=3, read-out: Cmax, md) was 148 ng/mL and the Tmax ([1]; female, 2.61 mg/kg, Day 27, Composition 4 i.v. 2.61 mg/kg, Females, Meanar n=3, read-out: tmax, md) was 2.33 h. For the same compound, the half-life ([1]; female, 2.61 mg/kg, Day 27, Composition 4 i.v. 2.61 mg/kg, Females, only for orientating, insufficient curve fitting) was 28.3 h, the AUC(0-t) ([1]; female, 2.61 mg/kg) was 1100 ng·h/mL and the AUC ([1]; female, 5.62 mg/kg, Day 1, Composition 4 i.v. 5.62 mg/kg, Females, Meanar n=3, read-out: AUCτ, sd) was 3540 ng·h/mL. The Cmax ([1]; female, 5.62 mg/kg, Day 1, Composition 4 i.v. 5.62 mg/kg, Females, Meanar n=3, read-out: Cmax, sd) was 279 ng/mL, the half-life ([1]; female, 5.62 mg/kg, Day 1, Composition 4 i.v. 5.62 mg/kg, Females, only for orientating, unsufficient curve fitting) was 20 h and the half-life ([1]; female, 5.62 mg/kg, Day 27, Composition 4 i.v. 5.62 mg/kg, Females, Meanar n=3) was 14.8 h. The AUC ([1]; female, 5.62 mg/kg, Day 27, Composition 4 i.v. 5.62 mg/kg, Females, Meanar n=3, read-out: AUCτ, md) was 2960 ng·h/mL, the Cmax ([1]; female, 5.62 mg/kg, Day 27, Composition 4 i.v. 5.62 mg/kg, Females, Meanar n=3, read-out: Cmax, md) was 315 ng/mL and the Tmax ([1]; female, 5.62 mg/kg, Day 27, Composition 4 i.v. 5.62 mg/kg, Females, Meanar n=3, read-out: tmax, md) was 2.33 h. It also gave an AUC(0-t) ([1]; female, 5.62 mg/kg) of 2740 ng·h/mL, a Tmax ([1]; female, 5.62 mg/kg, read-out: tmax, sd) of 2 h and a half-life ([1]; female, 12.1 mg/kg, Day 1, Composition 4 i.v. 12.1 mg/kg, Females, Meanar n=3) of 11.6 h. It also gave an AUC ([1]; female, 12.1 mg/kg, Day 1, Composition 4 i.v. 12.1 mg/kg, Females, Meanar n=3, read-out: AUCsd) of 8250 ng·h/mL, an AUC ([1]; female, 12.1 mg/kg, Day 1, Composition 4 i.v. 12.1 mg/kg, Females, Meanar n=3, read-out: AUCτ, sd) of 7670 ng·h/mL and a Cmax ([1]; female, 12.1 mg/kg, Day 1, Composition 4 i.v. 12.1 mg/kg, Females, Meanar n=3, read-out: Cmax, sd) of 860 ng/mL. For the same compound, the Tmax ([1]; female, 12.1 mg/kg, Day 1, Composition 4 i.v. 12.1 mg/kg, Females, Meanar n=3, read-out: tmax, sd) was 2.33 h, the half-life ([1]; female, 12.1 mg/kg, Day 27, Composition 4 i.v. 12.1 mg/kg, Females, Meanar n=3) was 24.2 h and the AUC ([1]; female, 12.1 mg/kg, Day 27, Composition 4 i.v. 12.1 mg/kg, Females, Meanar n=3, read-out: AUCτ, md) was 4850 ng·h/mL. For the same compound, the Cmax ([1]; female, 12.1 mg/kg, Day 27, Composition 4 i.v. 12.1 mg/kg, Females, Meanar n=3, read-out: Cmax, md) was 329 ng/mL, the Tmax ([1]; female, 12.1 mg/kg, Day 27, Composition 4 i.v. 12.1 mg/kg, Females, Meanar n=3, read-out: tmax, md) was 2.67 h and the AUC(0-t) ([1]; female, 12.1 mg/kg) was 4850 ng·h/mL. The Cmax ([1]; male, 2.61 mg/kg, Day 1, Composition 4 i.v. 2.61 mg/kg, Males, Meanar n=3, read-out: Cmax, sd) was 147 ng/mL, the Tmax ([1]; male, 2.61 mg/kg, Day 1, Composition 4 i.v. 2.61 mg/kg, Males, Meanar n=3, read-out: tmax, sd) was 1.67 h and the half-life ([1]; male, 2.61 mg/kg, Day 27, Composition 4 i.v. 2.61 mg/kg, Males, Meanar n=3) was 40.7 h. For the same compound, the AUC ([1]; male, 2.61 mg/kg, Day 27, Composition 4 i.v. 2.61 mg/kg, Males, Meanar n=3, read-out: AUCτ, md) was 1740 ng·h/mL, the Cmax ([1]; male, 2.61 mg/kg, Day 27, Composition 4 i.v. 2.61 mg/kg, Males, Meanar n=3, read-out: Cmax, md) was 224 ng/mL and the Tmax ([1]; male, 2.61 mg/kg, Day 27, Composition 4 i.v. 2.61 mg/kg, Males, Meanar n=3, read-out: tmax, md) was 1.33 h. It also gave an AUC(0-t) ([1]; male, 2.61 mg/kg) of 1450 ng·h/mL, a half-life ([1]; male, 5.62 mg/kg, Day 1, Composition 4 i.v. 5.62 mg/kg, Males, Meanar n=3) of 6.63 h and an AUC ([1]; male, 5.62 mg/kg, Day 1, Composition 4 i.v. 5.62 mg/kg, Males, Meanar n=3, read-out: AUCsd) of 2470 ng·h/mL. The AUC ([1]; male, 5.62 mg/kg, Day 1, Composition 4 i.v. 5.62 mg/kg, Males, Meanar n=3, read-out: AUCτ, sd) was 2590 ng·h/mL, the Cmax ([1]; male, 5.62 mg/kg, Day 1, Composition 4 i.v. 5.62 mg/kg, Males, Meanar n=3, read-out: Cmax, sd) was 241 ng/mL and the Cmax ([1]; male, 5.62 mg/kg, Day 27, Composition 4 i.v. 5.62 mg/kg, Males, Meanar n=3, read-out: Cmax, md) was 186 ng/mL. For the same compound, the Tmax ([1]; male, 5.62 mg/kg, Day 27, Composition 4 i.v. 5.62 mg/kg, Males, Meanar n=3, read-out: tmax, md) was 2.33 h, the half-life ([1]; male, 5.62 mg/kg, Day 27, Composition 4 i.v. 5.62 mg/kg, Males, marked ** (footnote not given)) was 5.1 h and the AUC(0-t) ([1]; male, 5.62 mg/kg) was 1320 ng·h/mL. It also gave an AUC ([1]; male, 5.62 mg/kg, read-out: AUCτ, md) of 1850 ng·h/mL, a Tmax ([1]; male, 5.62 mg/kg, read-out: tmax, sd) of 2 h and a half-life ([1]; male, 12.1 mg/kg, Day 1, Composition 4 i.v. 12.1 mg/kg, Males, Meanar n=3) of 8.74 h. It also gave an AUC ([1]; male, 12.1 mg/kg, Day 1, Composition 4 i.v. 12.1 mg/kg, Males, Meanar n=3, read-out: AUCsd) of 6980 ng·h/mL, an AUC ([1]; male, 12.1 mg/kg, Day 1, Composition 4 i.v. 12.1 mg/kg, Males, Meanar n=3, read-out: AUCτ, sd) of 6870 ng·h/mL and a Cmax ([1]; male, 12.1 mg/kg, Day 1, Composition 4 i.v. 12.1 mg/kg, Males, Meanar n=3, read-out: Cmax, sd) of 592 ng/mL. For the same compound, the Tmax ([1]; male, 12.1 mg/kg, Day 1, Composition 4 i.v. 12.1 mg/kg, Males, Meanar n=3, read-out: tmax, sd) was 2.67 h, the half-life ([1]; male, 12.1 mg/kg, Day 27, Composition 4 i.v. 12.1 mg/kg, Males, Meanar n=3) was 11.9 h and the AUC ([1]; male, 12.1 mg/kg, Day 27, Composition 4 i.v. 12.1 mg/kg, Males, Meanar n=3, read-out: AUCτ, md) was 5620 ng·h/mL. It also gave a Cmax ([1]; male, 12.1 mg/kg, Day 27, Composition 4 i.v. 12.1 mg/kg, Males, Meanar n=3, read-out: Cmax, md) of 435 ng/mL, a Tmax ([1]; male, 12.1 mg/kg, Day 27, Composition 4 i.v. 12.1 mg/kg, Males, Meanar n=3, read-out: tmax, md) of 2.67 h and an AUC(0-t) ([1]; male, 12.1 mg/kg) of 5560 ng·h/mL. The “overlap of binding site with tubulin-binding sites of vincristine or colchicine” value [2] was “does not appear to overlap”, the effect on microtubules ([2]; in tumor cells, as well as in a cell-free system) was “destabilizes microtubules” and the “effect on cell cycle progression” value [3] was “selectively blocks cell cycle progression at metaphase”. For the same compound, the “antitumor activity in vitro” value [4] was “significant antitumor activity”, the neurological symptoms ([5]; animal experiments) was “No neurological symptoms” and the in-vivo antineoplastic efficacy ([5]; animals) was “high in-vivo antineoplastic efficacy”. For the same compound, the tolerability ([5]; preclinical experiments in rodents) was “very well tolerated at highly effective doses”.
